From patent US20240415826A1, “[…] OF A GENE ENCODING AN […] BY TREATING A HUMAN SUBJECT WITH A NITROXIDE” (priority 2021, published 2024)

Assays:
UCP2 [1] = test: Effects of Tempol on gene expression in cardiac tissue of mice, chip-based microarray; assay type: in vivo; conditions: 5 mg/g of food from 14 to 31 months after birth
Description: To assess the effects of Tempol on gene expression, Tempol was administered to experimental mice at a dose of 5 mg/g of food from 14 months to 31 months after birth. Mice receiving the same food without the addition of Tempol were used as a negative control. At the age of 31 months, the experimental animals were sacrificed and the hearts were surgically removed. The expression of a broad spectrum of genes in the cardiac tissue was assessed using chip-based microarray technology. Such chips are well known in the art and are widely used to assess gene expression.

UCP2 [2] = test: Treating a human subject with Tempol, serum level of UCP2 following treatment; assay type: in vivo; conditions: 2000 mg per day for 180 days
Description: (§1) A 70-kilogram human subject over the age of 65 is identified as having, or known to have, or suspected of having an increased expression level of UCP2. The human subject is administered a dose of 2000 mg of Tempol (or another nitroxide antioxidant) per day for 180 days. This may be administered in a single dose, or may be administered as a number of smaller doses over a 24-hour period: for example, four 500-mg doses at […]. Following treatment, the serum level of UCP2, is decreased.
A 70-kilogram human subject is identified as having, or known to have, or suspected of having an increased expression level of UCP2. The human subject is administered a dose of 2000 mg of Tempol (or another nitroxide antioxidant) per day for 180 days. This may be administered in a single dose, or may be administered as a number of smaller doses over a 24-hour period: for example, four 500-mg doses at […]. Following treatment, the serum level of UCP2, is decreased.
as §1, with “65 and having a cardiovascular disease” for “65”, “for an increased expression level of UCP2. Or a 70-kilogram human subject over the age of 65 is” for “as having, or”, “have a cardiovascular disease and/or” for “have, or suspected of having an”
(§2) A 70-kilogram human subject at risk of developing colorectal cancer is identified for increased expression level of UCP2. Or a 70-kilogram human subject is known to be at risk of developing colorectal cancer and/or have increased expression level of UCP2. The human subject is administered a dose of 2000 mg of Tempol (or another nitroxide antioxidant) per day for 180 days. This may be administered in a single dose, or may be administered as a number of smaller doses over a 24-hour period: for example, four 500-mg doses at […]. Following treatment, the serum level of UCP2, is decreased.
as §2, with “of developing an autoimmune disease (e.g., rheumatoid arthritis) is identified” for “of developing colorectal cancer is identified”, “of developing an autoimmune disease and/or have” for “of developing colorectal cancer and/or have”
A 70-kilogram human subject of person at risk of developing a condition due to aging is identified. Or a 70-kilogram human subject of person is known to be at risk of developing a condition. The human subject is administered a dose of 2000 mg of Tempol (or another nitroxide antioxidant) per day for 180 days. This may be administered in a single dose, or may be administered as a number of smaller doses over a 24-hour period: for example, four 500-mg doses at […]. Following treatment, the serum level of UCP2, is decreased.
A 70-kilogram human subject at risk of developing a neurodegenerative disease (e.g., Parkinson's Disease) is identified for increased expression level of UCP2. Or a 70-kilogram human subject is known to be at risk of developing a neurodegenerative disease and/or have increased expression level of UCP2. The human subject is administered a dose of 2000 mg of Tempol (or another nitroxide antioxidant) per day for 180 days. […]

## CC1(C)CC(O)CC(C)(C)N1[O] [Tempol, 4-hydroxy-2,2,6,6-tetramethylpiperidine-1-oxyl]
UCP2 [1]; hearts at 31 months, vs. same food without Tempol, P-value 0.012
  Fold change (UCP2 expression in cardiac tissue after Tempol administration): −1.61
UCP2 [1]; microarray
  UCP2 expression in cardiac tissue (result in words): statistically significant decrease in expression
UCP2 [2]; Example 2: 70-kilogram human subject over the age of 65 with increased UCP2 expression
  serum level of UCP2 following treatment: decreased
UCP2 [2]; Example 3: 70-kilogram human subject with increased UCP2 expression
  serum level of UCP2 following treatment: decreased
UCP2 [2]; Example 4: human subject over the age of 65 having a cardiovascular disease
  serum level of UCP2 following treatment: decreased
UCP2 [2]; Example 5: human subject at risk of developing colorectal cancer
  serum level of UCP2 following treatment: decreased
UCP2 [2]; Example 6: human subject at risk of developing an autoimmune disease
  serum level of UCP2 following treatment: decreased
UCP2 [2]; Example 7: human subject at risk of developing a condition due to aging
  serum level of UCP2 following treatment: decreased
UCP2 [2]; Example 8: human subject at risk of developing a neurodegenerative disease
  serum level of UCP2 following treatment: decreased
UCP2 [2]; Example 9: human subject having an infection
  serum level of UCP2 following treatment: decreased
